The text below walks through data of ChEMBL document CHEMBL5678818, “Discovery of potent SOS1 inhibitors that block RAS activation via disruption of the RAS-SOS1 interaction” (Proc Natl Acad Sci U S A, 2019).

In assay [1] the target is Tyrosine-protein kinase ABL1 (Homo sapiens) (UniProt P00519). As to the kind of experiment: Inhibition of nonphosphorylated ABL1 (unknown origin) assessed as residual activity at 100 nM by KINOMEscan analysis relative to control.
In assay [2] the target is T1, Interleukin-1 receptor-associated kinase 3 (Homo sapiens) (UniProt Q9Y616).
T1 sequence (whole entry): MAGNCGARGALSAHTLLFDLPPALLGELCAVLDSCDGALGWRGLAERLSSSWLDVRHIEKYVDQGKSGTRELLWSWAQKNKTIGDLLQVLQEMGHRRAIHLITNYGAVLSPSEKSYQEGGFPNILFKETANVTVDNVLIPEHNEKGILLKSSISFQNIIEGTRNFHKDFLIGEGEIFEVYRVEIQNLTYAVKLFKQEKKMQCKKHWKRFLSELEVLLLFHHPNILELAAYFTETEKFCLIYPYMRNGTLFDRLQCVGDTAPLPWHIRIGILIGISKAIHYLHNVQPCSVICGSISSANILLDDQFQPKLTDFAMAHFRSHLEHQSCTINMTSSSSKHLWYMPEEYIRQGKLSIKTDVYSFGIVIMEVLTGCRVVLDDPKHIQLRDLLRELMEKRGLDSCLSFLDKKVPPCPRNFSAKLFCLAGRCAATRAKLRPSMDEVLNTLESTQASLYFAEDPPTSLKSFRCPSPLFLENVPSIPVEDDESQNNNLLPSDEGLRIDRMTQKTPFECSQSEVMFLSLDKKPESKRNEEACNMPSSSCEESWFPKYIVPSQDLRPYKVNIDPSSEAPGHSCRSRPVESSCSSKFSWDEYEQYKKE
The assay is described as follows: Inhibition of IRAK3 (unknown origin) assessed as residual activity at 100 nM by KINOMEscan analysis relative to control.

Assay [3] deals with T2, Serine/threonine-protein kinase D1 (Homo sapiens) (UniProt Q15139).
T2 sequence (whole entry): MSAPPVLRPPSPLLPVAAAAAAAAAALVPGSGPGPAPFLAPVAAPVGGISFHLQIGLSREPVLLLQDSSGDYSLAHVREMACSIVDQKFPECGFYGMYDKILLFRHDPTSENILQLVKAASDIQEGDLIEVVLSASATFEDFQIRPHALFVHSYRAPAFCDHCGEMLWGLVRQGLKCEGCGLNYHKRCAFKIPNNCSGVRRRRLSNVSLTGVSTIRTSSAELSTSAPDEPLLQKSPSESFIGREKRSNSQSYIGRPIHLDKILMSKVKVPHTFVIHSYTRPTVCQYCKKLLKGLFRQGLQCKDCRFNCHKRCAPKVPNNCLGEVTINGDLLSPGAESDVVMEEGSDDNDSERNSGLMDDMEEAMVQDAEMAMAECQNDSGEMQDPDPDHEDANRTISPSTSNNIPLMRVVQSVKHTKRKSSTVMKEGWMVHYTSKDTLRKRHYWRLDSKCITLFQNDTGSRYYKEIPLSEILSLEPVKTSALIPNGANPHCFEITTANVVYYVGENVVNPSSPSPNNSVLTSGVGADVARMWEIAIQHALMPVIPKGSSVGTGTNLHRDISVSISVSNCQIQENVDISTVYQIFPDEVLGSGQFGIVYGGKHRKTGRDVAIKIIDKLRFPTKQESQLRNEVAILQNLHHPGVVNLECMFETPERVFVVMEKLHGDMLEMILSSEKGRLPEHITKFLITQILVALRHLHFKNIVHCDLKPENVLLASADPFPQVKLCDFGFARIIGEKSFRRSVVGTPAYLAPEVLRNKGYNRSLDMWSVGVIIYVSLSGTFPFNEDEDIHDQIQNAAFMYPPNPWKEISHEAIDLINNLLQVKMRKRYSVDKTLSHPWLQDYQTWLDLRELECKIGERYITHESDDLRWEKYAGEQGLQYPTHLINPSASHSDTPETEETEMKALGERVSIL
The assay is described as follows: Inhibition of PRKD1 (unknown origin) assessed as residual activity at 100 nM by KINOMEscan analysis relative to control.

Assay [4] concerns the target T3, Serine/threonine-protein kinase ULK2 (Homo sapiens) (UniProt Q8IYT8).
T3 sequence (whole entry): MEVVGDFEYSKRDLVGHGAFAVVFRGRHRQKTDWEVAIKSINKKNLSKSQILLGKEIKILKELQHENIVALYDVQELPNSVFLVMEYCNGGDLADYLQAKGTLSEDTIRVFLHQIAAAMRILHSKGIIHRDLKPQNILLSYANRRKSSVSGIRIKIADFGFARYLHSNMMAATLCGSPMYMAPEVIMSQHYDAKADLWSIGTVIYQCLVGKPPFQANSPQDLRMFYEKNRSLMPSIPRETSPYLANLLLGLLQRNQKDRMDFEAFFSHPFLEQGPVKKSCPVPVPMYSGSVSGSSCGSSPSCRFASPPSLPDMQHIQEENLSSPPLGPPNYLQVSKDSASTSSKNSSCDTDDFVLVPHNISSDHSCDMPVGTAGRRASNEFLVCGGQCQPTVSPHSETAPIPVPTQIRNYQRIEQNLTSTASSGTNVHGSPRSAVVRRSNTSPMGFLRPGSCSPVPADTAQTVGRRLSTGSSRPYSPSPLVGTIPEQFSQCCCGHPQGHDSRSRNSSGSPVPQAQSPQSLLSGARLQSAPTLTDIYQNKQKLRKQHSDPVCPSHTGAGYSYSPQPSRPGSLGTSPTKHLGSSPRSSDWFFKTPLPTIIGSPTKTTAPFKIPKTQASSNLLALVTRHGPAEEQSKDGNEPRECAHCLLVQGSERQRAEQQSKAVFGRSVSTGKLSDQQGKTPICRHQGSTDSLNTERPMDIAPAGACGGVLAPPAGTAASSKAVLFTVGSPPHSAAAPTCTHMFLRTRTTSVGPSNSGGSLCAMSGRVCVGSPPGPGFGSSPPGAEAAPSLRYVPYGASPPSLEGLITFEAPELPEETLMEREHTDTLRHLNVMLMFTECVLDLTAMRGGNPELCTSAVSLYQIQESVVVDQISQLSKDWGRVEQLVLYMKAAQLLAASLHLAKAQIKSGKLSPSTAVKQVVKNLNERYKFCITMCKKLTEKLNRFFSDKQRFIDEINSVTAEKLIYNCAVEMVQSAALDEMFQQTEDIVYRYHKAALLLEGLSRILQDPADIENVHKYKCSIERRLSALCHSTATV
As to the kind of experiment: Inhibition of ULK2 (unknown origin) assessed as residual activity at 100 nM by KINOMEscan analysis relative to control.

Tyrosine-protein kinase ABL1 (Homo sapiens), sequence (P00519 whole entry): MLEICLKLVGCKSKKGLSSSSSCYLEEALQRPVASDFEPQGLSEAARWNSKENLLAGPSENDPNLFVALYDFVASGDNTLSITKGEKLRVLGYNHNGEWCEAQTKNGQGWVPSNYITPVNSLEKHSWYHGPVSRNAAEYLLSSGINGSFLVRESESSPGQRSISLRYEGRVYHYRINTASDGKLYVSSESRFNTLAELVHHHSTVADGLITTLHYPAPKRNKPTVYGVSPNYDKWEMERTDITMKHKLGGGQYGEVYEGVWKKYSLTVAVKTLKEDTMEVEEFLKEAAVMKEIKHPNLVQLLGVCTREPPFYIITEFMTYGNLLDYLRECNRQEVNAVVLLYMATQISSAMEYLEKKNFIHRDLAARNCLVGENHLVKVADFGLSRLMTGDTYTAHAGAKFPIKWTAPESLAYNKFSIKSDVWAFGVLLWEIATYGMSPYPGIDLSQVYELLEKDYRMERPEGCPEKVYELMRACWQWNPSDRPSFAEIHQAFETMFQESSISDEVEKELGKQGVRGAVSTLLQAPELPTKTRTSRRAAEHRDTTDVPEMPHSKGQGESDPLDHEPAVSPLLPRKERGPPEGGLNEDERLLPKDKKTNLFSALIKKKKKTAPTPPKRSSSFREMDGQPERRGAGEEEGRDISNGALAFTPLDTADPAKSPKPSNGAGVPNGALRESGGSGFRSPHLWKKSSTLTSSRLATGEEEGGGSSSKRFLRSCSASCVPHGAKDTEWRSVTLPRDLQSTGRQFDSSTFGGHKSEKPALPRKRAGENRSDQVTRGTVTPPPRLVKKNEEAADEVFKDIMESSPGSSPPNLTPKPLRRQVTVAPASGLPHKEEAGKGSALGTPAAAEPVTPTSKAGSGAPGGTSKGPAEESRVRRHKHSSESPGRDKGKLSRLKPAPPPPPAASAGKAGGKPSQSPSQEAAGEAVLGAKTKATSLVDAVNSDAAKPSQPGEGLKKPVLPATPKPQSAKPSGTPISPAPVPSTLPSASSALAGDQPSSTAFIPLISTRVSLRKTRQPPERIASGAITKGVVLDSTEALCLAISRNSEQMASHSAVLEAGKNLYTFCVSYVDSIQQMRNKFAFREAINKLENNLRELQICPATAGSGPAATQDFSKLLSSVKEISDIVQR

Take `COc1cc2ncnc(N[C@H](C)c3cccc4ccccc34)c2cc1OC`: the Activity was 99% in assay [1], 100% in assay [2], 84% in assay [3] and 100% in assay [4].
